Values joined by “and” are separate entries in the source; they are usually repeats but may differ in a detail not shown here. Identical values can stand only once.
Target: T1, human TAS2R4 (Homo sapiens, UniProt Q9NYW5)
T1 construct: expressed in transfected cells; host or cells: HEK293T-Gα16gust44
T1 sequence (Q9NYW5 1-299): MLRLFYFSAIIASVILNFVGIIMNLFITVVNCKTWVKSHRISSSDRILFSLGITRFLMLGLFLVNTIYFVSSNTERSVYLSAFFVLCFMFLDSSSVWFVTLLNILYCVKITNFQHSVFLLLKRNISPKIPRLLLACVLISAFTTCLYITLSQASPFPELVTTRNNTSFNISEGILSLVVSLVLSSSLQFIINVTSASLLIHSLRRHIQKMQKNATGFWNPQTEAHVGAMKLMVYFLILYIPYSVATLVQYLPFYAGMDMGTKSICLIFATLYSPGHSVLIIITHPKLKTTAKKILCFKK
Test: Calcium imaging assay (FLIPR), HEK293T-Gα16gust44 cells transfected with human TAS2R4
Type: cell-based
How it was run: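 Fluo-4 calcium responses; ΔF/F corrected for mock transfection and buffer control; triplicate independent dose-response runs; p < 0.01 threshold.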

C[C@H](CCC(=O)NCCS(=O)(=O)O)[C@H]1CC[C@H]2[C@@H]3CC[C@@H]4C[C@H](O)CC[C@]4(C)[C@H]3CC[C@]12C [Taurolithocholic Acid, taurolithocholic acid]
Efficacy = maximal amplitude (ΔF/F) (TAS2R4, bile acids, mean): 0.1385 | Efficacy (maximal amplitude ΔF/F), individual data points (TAS2R4, bile acids, single replicates, listed as TLCA): 0.1344 and 0.1516 and 0.119 and 0.1444 and 0.143 | RLU, fluorescence trace (Time (s) 0): 0 RLU | RLU, fluorescence trace (Time (s) 2): -14.866 RLU | RLU, fluorescence trace (Time (s) 4): -10.9022 RLU | RLU, fluorescence trace (Time (s) 6): -0.9261 RLU | RLU, fluorescence trace (Time (s) 8): -7.834 RLU | RLU, fluorescence trace (Time (s) 12): -12.8379 RLU | RLU, fluorescence trace (Time (s) 14): 6.067 RLU | RLU, fluorescence trace (Time (s) 16): 3.969 RLU | RLU, fluorescence trace (Time (s) 18): -13.8081 RLU | RLU, fluorescence trace (Time (s) 18.766 (TCA, TLCA: 18.782)): -6.318 RLU | RLU, fluorescence trace (Time (s) 20.781 (TCA, TLCA: 20.782)): 0.7554 RLU | RLU, fluorescence trace (Time (s) 22.781 (TCA, TLCA: 22.782)): 22.9324 RLU | RLU, fluorescence trace (Time (s) 24.781 (TCA, TLCA: 24.782)): 4.9 RLU | RLU, fluorescence trace (Time (s) 26.781 (TCA, TLCA: 26.782)): 24.977 RLU | RLU, fluorescence trace (Time (s) 28.781 (TCA, TLCA: 28.782)): 22.993 RLU | RLU, fluorescence trace (Time (s) 30.781 (TCA, TLCA: 30.782)): 49.0114 RLU | RLU, fluorescence trace (Time (s) 32.781 (TCA, TLCA: 32.782)): 81.1426 RLU | RLU, fluorescence trace (Time (s) 34.781 (TCA, TLCA: 34.782)): 109.126 RLU | RLU, fluorescence trace (Time (s) 36.781 (TCA, TLCA: 36.782)): 126.942 RLU | RLU, fluorescence trace (Time (s) 38.781 (TCA, TLCA: 38.782)): 159.412 RLU | RLU, fluorescence trace (Time (s) 40.781 (TCA, TLCA: 40.782)): 175 RLU | RLU, fluorescence trace (Time (s) 42.781 (TCA, TLCA: 42.782)): 193.772 RLU | RLU, fluorescence trace (Time (s) 44.781 (TCA, TLCA: 44.782)): 218.413 RLU | RLU, fluorescence trace (Time (s) 46.781 (TCA, TLCA: 46.782)): 198.067 RLU | RLU, fluorescence trace (Time (s) 48.781 (TCA, TLCA: 48.782)): 224.737 RLU | RLU, fluorescence trace (Time (s) 50.781 (TCA, TLCA: 50.782)): 242.508 RLU | RLU, fluorescence trace (Time (s) 52.781 (TCA, TLCA: 52.782)): 256.995 RLU | RLU, fluorescence trace (Time (s) 54.781 (TCA, TLCA: 54.782)): 227.079 RLU | RLU, fluorescence trace (Time (s) 56.781 (TCA, TLCA: 56.782)): 225.961 RLU | RLU, fluorescence trace (Time (s) 58.781 (TCA, TLCA: 58.782)): 271.056 RLU | RLU, fluorescence trace (Time (s) 60.781 (TCA, TLCA: 60.782)): 261.6 RLU | RLU, fluorescence trace (Time (s) 62.781 (TCA, TLCA: 62.782)): 251.574 RLU | RLU, fluorescence trace (Time (s) 64.781 (TCA, TLCA: 64.782)): 292.569 RLU | RLU, fluorescence trace (Time (s) 66.781 (TCA, TLCA: 66.782)): 280.396 RLU | RLU, fluorescence trace (Time (s) 68.781 (TCA, TLCA: 68.782)): 265.03 RLU | RLU, fluorescence trace (Time (s) 70.781 (TCA, TLCA: 70.782)): 284.572 RLU | RLU, fluorescence trace (Time (s) 72.781 (TCA, TLCA: 72.782)): 284.878 RLU | RLU, fluorescence trace (Time (s) 74.781 (TCA, TLCA: 74.782)): 290.176 RLU | RLU, fluorescence trace (Time (s) 76.781 (TCA, TLCA: 76.782)): 292.885 RLU | RLU, fluorescence trace (Time (s) 78.781 (TCA, TLCA: 78.782)): 302.496 RLU | RLU, fluorescence trace (Time (s) 80.781 (TCA, TLCA: 80.782)): 299.577 RLU | RLU, fluorescence trace (Time (s) 82.781 (TCA, TLCA: 82.782)): 289.637 RLU | RLU, fluorescence trace (Time (s) 84.781 (TCA, TLCA: 84.782)): 284.791 RLU | RLU, fluorescence trace (Time (s) 86.781 (TCA, TLCA: 86.782)): 284.228 RLU | RLU, fluorescence trace (Time (s) 88.781 (TCA, TLCA: 88.782)): 289.096 RLU | RLU, fluorescence trace (Time (s) 90.781 (TCA, TLCA: 90.782)): 288.658 RLU | RLU, fluorescence trace (Time (s) 92.781 (TCA, TLCA: 92.782)): 295.597 RLU | RLU, fluorescence trace (Time (s) 94.781 (TCA, TLCA: 94.782)): 300.252 RLU | RLU, fluorescence trace (Time (s) 96.781 (TCA, TLCA: 96.782)): 303.134 RLU | RLU, fluorescence trace (Time (s) 98.781 (TCA, TLCA: 98.782)): 268.467 RLU | RLU, fluorescence trace (Time (s) 100.781 (TCA, TLCA: 100.782)): 282.827 RLU | RLU, fluorescence trace (Time (s) 102.781 (TCA, TLCA: 102.782)): 280.287 RLU | RLU, fluorescence trace (Time (s) 104.781 (TCA, TLCA: 104.782)): 297.596 RLU | RLU, fluorescence trace (Time (s) 106.781 (TCA, TLCA: 106.782)): 261.785 RLU | RLU, fluorescence trace (Time (s) 108.781 (TCA, TLCA: 108.782)): 279.776 RLU | RLU, fluorescence trace (Time (s) 110.781 (TCA, TLCA: 110.782)): 253.834 RLU | RLU, fluorescence trace (Time (s) 112.781 (TCA, TLCA: 112.782)): 272.21 RLU | RLU, fluorescence trace (Time (s) 114.781 (TCA, TLCA: 114.782)): 268.219 RLU | RLU, fluorescence trace (Time (s) 116.781 (TCA, TLCA: 116.782)): 268.998 RLU | RLU, fluorescence trace (Time (s) 118.781 (TCA, TLCA: 118.782)): 262.891 RLU | RLU, fluorescence trace (Time (s) 120.781 (TCA, TLCA: 120.782)): 267.293 RLU | RLU, fluorescence trace (Time (s) 122.781 (TCA, TLCA: 122.782)): 280.896 RLU | RLU, fluorescence trace (Time (s) 124.781 (TCA, TLCA: 124.782)): 273.898 RLU | RLU, fluorescence trace (Time (s) 126.781 (TCA, TLCA: 126.782)): 249.374 RLU | RLU, fluorescence trace (Time (s) 128.781 (TCA, TLCA: 128.782)): 270.269 RLU | RLU, fluorescence trace (Time (s) 130.781 (TCA, TLCA: 130.782)): 267.674 RLU | RLU, fluorescence trace (Time (s) 132.781 (TCA, TLCA: 132.782)): 259.914 RLU | RLU, fluorescence trace (Time (s) 134.781 (TCA, TLCA: 134.782)): 243.112 RLU | RLU, fluorescence trace (Time (s) 136.781 (TCA, TLCA: 136.782)): 250.545 RLU | RLU, fluorescence trace (Time (s) 137.547): 251.257 RLU | RLU, fluorescence trace (Time (s) 143.547): 215.734 RLU | RLU, fluorescence trace (Time (s) 149.547): 237.866 RLU | RLU, fluorescence trace (Time (s) 155.547): 193.672 RLU | RLU, fluorescence trace (Time (s) 161.547): 207.578 RLU | RLU, fluorescence trace (Time (s) 167.547): 205.902 RLU | RLU, fluorescence trace (Time (s) 173.547): 204.036 RLU | RLU, fluorescence trace (Time (s) 179.547): 180.442 RLU | RLU, fluorescence trace (Time (s) 185.547): 185.763 RLU | RLU, fluorescence trace (Time (s) 191.547): 137.563 RLU | RLU, fluorescence trace (Time (s) 197.547): 147.254 RLU | RLU, fluorescence trace (Time (s) 203.547): 133.472 RLU | RLU, fluorescence trace (Time (s) 209.547): 90.5191 RLU | RLU, fluorescence trace (Time (s) 215.547): 65.3811 RLU | RLU, fluorescence trace (Time (s) 221.547): 77.9879 RLU | RLU, fluorescence trace (Time (s) 227.547): 99.7214 RLU | RLU, fluorescence trace (Time (s) 233.547): 126.783 RLU | RLU, fluorescence trace (Time (s) 239.547): 132.165 RLU | RLU, fluorescence trace (Time (s) 245.547): 104.275 RLU | RLU, fluorescence trace (Time (s) 293.547): 136.191 RLU | RLU, fluorescence trace (Time (s) 299.547): 118.82 RLU | RLU, fluorescence trace (Time (s) 305.547): 140.647 RLU | RLU, fluorescence trace (Time (s) 311.547): 122.148 RLU | RLU, fluorescence trace (Time (s) 317.547): 88.8315 RLU | RLU, fluorescence trace (Time (s) 323.547): 111.642 RLU | RLU, fluorescence trace (Time (s) 329.547): 124.756 RLU | RLU, fluorescence trace (Time (s) 335.547): 109.477 RLU | RLU, fluorescence trace (Time (s) 341.547): 98.825 RLU | RLU, fluorescence trace (Time (s) 347.547): 92.346 RLU | RLU, fluorescence trace (Time (s) 353.547): 124.878 RLU | RLU, fluorescence trace (Time (s) 359.547): 119.545 RLU | Activation threshold concentration TAS2R4 (lowest concentration with significantly increased fluorescence vs empty vector (p < 0.01)): 1 µM
